Literature values, collected in US20210147810A1, “SINGLE LUNG CELL-DERIVED ORGANOIDS” (Rutgers, The State University of New Jersey, priority 2017, published 2021).

System: PTPRT-mutant NSCLC
Settings: in vivo

CC(=O)c1cc2c(o1)C(=O)c1ccccc1C2=O [BBI608]
anti-tumor activity: effective anti-tumor activity
